Source: PubChem BioAssay (NCI)
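All cell lines were grown in 96-well plates and treated with compound for 48 hours. The concentration for 50% growth inhibition is given as GI50. Definition used: TGI = concentration required for complete inhibition of growth.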

Experiments:
Assay in all cases: inhibition of tumour cell growth, NCI panel, 48 h
[1] = system: 786-0 renal
[2] = system: A498 renal
[3] = system: A549 NSCLC
[4] = system: ACHN renal
[5] = system: BT-549 breast
[6] = system: CAKI-1 renal
[7] = system: CCRF-CEM leukemia
[8] = system: COLO 205 colon
[9] = system: DU-145 prostate
[10] = system: EKVX NSCLC
[11] = system: HCC-2998 colon
[12] = system: HCT-116 colon
[13] = system: HCT-15 colon
[14] = system: HL-60(TB) leukemia
[15] = system: HOP-62 NSCLC
[16] = system: HOP-92 NSCLC
[17] = system: HS 578T breast
[18] = system: HT29 colon
[19] = system: IGROV1 ovarian
[20] = system: K-562 leukemia
[21] = system: KM12 colon
[22] = system: LOX IMVI melanoma
[23] = system: M14 melanoma
[24] = system: MALME-3M melanoma
[25] = system: MCF7 breast
[26] = system: MDA-MB-231 breast
[27] = system: MDA-MB-435
[28] = system: MOLT-4 leukemia
[29] = system: NCI-H226 lung
[30] = system: NCI-H23 lung
[31] = system: NCI-H460 lung
[32] = system: NCI-H522 lung
[33] = system: NCI/ADR-RES ovarian
[34] = system: OVCAR-3 ovarian
[35] = system: OVCAR-4 ovarian
[36] = system: OVCAR-5 ovarian
[37] = system: OVCAR-8 ovarian
[38] = system: PC-3 prostate
[39] = system: RPMI-8226 leukemia
[40] = system: RXF 393 renal
[41] = system: SF-268 CNS
[42] = system: SF-295 CNS
[43] = system: SF-539 CNS
[44] = system: SK-MEL-2 melanoma
[45] = system: SK-MEL-28 melanoma
[46] = system: SK-MEL-5 melanoma
[47] = system: SK-OV-3 ovarian
[48] = system: SN12C renal
[49] = system: SNB-19 CNS
[50] = system: SNB-75 CNS
[51] = system: SR leukemia
[52] = system: SW-620 colon
[53] = system: T-47D breast
[54] = system: TK-10 renal
[55] = system: U251 CNS
[56] = system: UACC-257 melanoma
[57] = system: UACC-62 melanoma
[58] = system: UO-31 renal

In the case of O=C(NNc1nc2cc(F)ccc2n2c(CN3CC4(COC4)C3)ccc12)c1cnccn1, the GI50 [1] is reported as 0.458 µM, the TGI [1] is reported as 11.2 µM and the GI50 [2] is reported as 16.7 µM. For the same compound, the TGI [2] was 34 µM, the GI50 [3] was 0.611 µM and the TGI [3] was 32.7 µM. For the same compound, the GI50 [4] was 0.233 µM, the TGI [4] was 11.7 µM and the GI50 [5] was 0.907 µM. For the same compound, the TGI [5] was 9.22 µM, the GI50 [6] was 0.33 µM and the TGI [6] was 13.2 µM. For the same compound, the GI50 [7] was 0.281 µM, the TGI [7] was over 70.4 µM and the GI50 [8] was 0.401 µM. For the same compound, the TGI [8] was 16.3 µM, the GI50 [9] was 1.18 µM and the TGI [9] was over 82.4 µM. For the same compound, the GI50 [10] was 0.438 µM, the TGI [10] was 30 µM and the GI50 [11] was 0.709 µM. For the same compound, the TGI [11] was over 45.9 µM, the GI50 [12] was 0.373 µM and the TGI [12] was 13.3 µM. For the same compound, the GI50 [13] was 0.188 µM, the TGI [13] was 26.3 µM and the GI50 [14] was 0.469 µM. For the same compound, the TGI [14] was 12.9 µM, the GI50 [15] was 0.442 µM and the TGI [15] was 22.1 µM. It also gave a GI50 [16] of 0.983 µM, a TGI [16] of 23.3 µM and a GI50 [17] of 3.04 µM. It also gave a TGI [17] of over 95.2 µM, a GI50 [18] of 0.499 µM and a TGI [18] of 16.8 µM. It also gave a GI50 [19] of 0.717 µM, a TGI [19] of 18.9 µM and a GI50 [20] of 0.502 µM. The TGI [20] was over 100 µM, the GI50 [21] was 0.579 µM and the TGI [21] was over 64.2 µM. For the same compound, the GI50 [22] was 0.557 µM, the TGI [22] was 9.72 µM and the GI50 [23] was 0.451 µM. The TGI [23] was 3.53 µM, the GI50 [24] was 1.6 µM and the TGI [24] was 11.9 µM. The GI50 [25] was 0.596 µM, the TGI [25] was 9.81 µM and the GI50 [26] was 0.696 µM. It also gave a TGI [26] of 19.5 µM, a GI50 [27] of 1.3 µM and a TGI [27] of over 47.5 µM. For the same compound, the GI50 [28] was 0.443 µM, the TGI [28] was over 75.6 µM and the GI50 [29] was 1.05 µM. It also gave a TGI [29] of 10.8 µM, a GI50 [30] of 1.78 µM and a TGI [30] of 41.8 µM. It also gave a GI50 [31] of 0.259 µM, a TGI [31] of 11.6 µM and a GI50 [32] of 0.497 µM. For the same compound, the TGI [32] was 5.5 µM, the GI50 [33] was 0.386 µM and the TGI [33] was 9.97 µM. The GI50 [34] was 0.65 µM, the TGI [34] was 22.7 µM and the GI50 [35] was 0.49 µM. For the same compound, the TGI [35] was over 39.1 µM, the GI50 [36] was 1.16 µM and the TGI [36] was 34.3 µM. For the same compound, the GI50 [37] was 0.404 µM, the TGI [37] was 16.3 µM and the GI50 [38] was 0.719 µM. It also gave a TGI [38] of 31.4 µM, a GI50 [39] of 0.689 µM and a TGI [39] of 28.1 µM. The GI50 [40] was 2.29 µM, the TGI [40] was 13.7 µM and the GI50 [41] was 0.616 µM. The TGI [41] was over 100 µM, the GI50 [42] was 0.319 µM and the TGI [42] was 12.2 µM. It also gave a GI50 [43] of 0.675 µM, a TGI [43] of 8.97 µM and a GI50 [44] of 2.19 µM. For the same compound, the TGI [44] was 14.7 µM, the GI50 [45] was 0.861 µM and the TGI [45] was 25.1 µM. It also gave a GI50 [46] of 0.673 µM, a TGI [46] of 5.33 µM and a GI50 [47] of 0.548 µM. For the same compound, the TGI [47] was 9.88 µM, the GI50 [48] was 0.952 µM and the TGI [48] was 33.5 µM. For the same compound, the GI50 [49] was 0.854 µM, the TGI [49] was over 100 µM and the GI50 [50] was 0.756 µM. The TGI [50] was 11 µM, the GI50 [51] was 0.409 µM and the TGI [51] was over 100 µM. It also gave a GI50 [52] of 0.62 µM, a TGI [52] of over 56.3 µM and a GI50 [53] of 0.558 µM. The TGI [53] was 22.3 µM, the GI50 [54] was 0.263 µM and the TGI [54] was 23.2 µM. It also gave a GI50 [55] of 0.395 µM, a TGI [55] of over 53.1 µM and a GI50 [56] of 1.72 µM. It also gave a TGI [56] of 8.07 µM, a GI50 [57] of 0.406 µM and a TGI [57] of 1.96 µM. For the same compound, the GI50 [58] was 0.114 µM and the TGI [58] was 5.71 µM.
